These results are taken from patent US6291532A, “Use of N-aryl-2-hydroxyalkylamides for stimulating or inducing hair growth and/or arresting hair loss” (L'Oreal, priority 1996, dated 2001).

The subject of experiment [1] is potassium channels. Kind of experiment: IC50 of the compounds for their effect on the potassium channels. Format: biochemical. The conditions noted are these: for IC50: methods of Newgreen et al., Bray et al. and wickerden et al., concentration which decreases by 50% an induced pharmacological mechanism such as muscular contraction, read-out: IC50 K+ Channels; for opening effect for potassium channels (in words): summary in words of the table of Example 1. Here is the method: (§1) The IC50 corresponds to the concentration which decreases by 50% either an induced pharmacological mechanism, such as muscular contraction,or the attachment of a molecule to its membrane receptor.
In order to determine the IC50 of the compounds for their effect on the potassium channels, they were tested according to the methods of Newgreen et al. (Br. J. Pharmacol., 1990, 100, 605-613), Bray et al. (Arch. Pharmacol., 1991, 344, 351-359) and wickerden et al. (Br. J. Pharmacol., 1991, 103, 1148-1152).
(§2) The values are given in μM

Experiment [2] concerns the target T1, androgen receptors (Rattus norvegicus, UniProt P15207).
T1 construct: from tissue; host or cells: rat ventral prostate cytosol, inferred from the cited method
T1 sequence (P15207 1-902): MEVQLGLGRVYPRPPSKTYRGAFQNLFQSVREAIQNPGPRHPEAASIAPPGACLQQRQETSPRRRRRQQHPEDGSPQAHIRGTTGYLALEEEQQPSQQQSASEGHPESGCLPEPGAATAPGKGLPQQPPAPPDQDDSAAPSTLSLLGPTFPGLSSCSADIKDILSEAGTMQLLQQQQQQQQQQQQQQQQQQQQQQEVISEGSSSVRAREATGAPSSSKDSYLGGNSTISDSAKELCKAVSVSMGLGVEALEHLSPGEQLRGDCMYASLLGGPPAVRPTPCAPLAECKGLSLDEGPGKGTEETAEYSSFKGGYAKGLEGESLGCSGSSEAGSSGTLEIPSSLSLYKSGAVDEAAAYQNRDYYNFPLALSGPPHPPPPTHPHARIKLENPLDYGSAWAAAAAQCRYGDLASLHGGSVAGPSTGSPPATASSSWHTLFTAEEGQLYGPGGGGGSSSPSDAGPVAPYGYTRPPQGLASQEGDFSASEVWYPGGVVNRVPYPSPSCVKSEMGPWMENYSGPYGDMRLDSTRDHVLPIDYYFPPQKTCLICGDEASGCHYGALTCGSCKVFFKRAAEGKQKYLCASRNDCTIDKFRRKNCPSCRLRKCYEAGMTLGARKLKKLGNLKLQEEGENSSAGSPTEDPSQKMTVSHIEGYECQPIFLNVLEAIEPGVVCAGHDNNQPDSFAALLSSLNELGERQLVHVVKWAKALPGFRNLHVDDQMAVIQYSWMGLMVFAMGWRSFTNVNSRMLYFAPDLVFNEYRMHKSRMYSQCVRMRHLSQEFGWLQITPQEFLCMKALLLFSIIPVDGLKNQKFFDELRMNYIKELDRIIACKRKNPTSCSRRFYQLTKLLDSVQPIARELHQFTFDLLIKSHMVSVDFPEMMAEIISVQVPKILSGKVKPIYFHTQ
Briefly: IC50 of the compounds for their effect on the androgen receptors. Format: binding. The conditions noted are these: for affinity for the androgen receptor (in words): summary in words of the table of Example 1. Here is the method:
as §1
In order to determine the IC50 of the compounds for their effect on the androgen receptors, they were tested according to the method of Schilling and Liao ("The Prostate", 1984, 5, 581-588).
as §2

Where [3] appears, read: method of Schilling and Liao, concentration which decreases by 50% the attachment of a molecule to its receptor, read-out: IC50 Androgen receptors.

Where two headings read alike, the source gives them in different places. Bounds are passed on as bounds.

Usually IC50 stands for the concentration at which inhibition is half-maximal. With `CC(O)(C(=O)Nc1ccc(C#N)cc1)C(F)(F)F` (stereo not shown) [G, N-(4-cyanophenyl)-3,3,3-trifluoro-2-hydroxy-2-methylpropionamide, reference compound], the IC50 is 10 µM in experiment [1] and over 10 µM in experiment [2] (setting [3]). Also, the “opening effect for potassium channels (in words)” value (“opening effect” below) in experiment [1] is listed as “poor opening effect”. The “affinity for the androgen receptor (in words)” value (“affinity” for short) in experiment [2] is recorded as “poor affinity”.
Regarding `CC(O)(C(=O)Nc1ccc(C#N)c(Cl)c1)C(F)(F)F` (stereo not shown) [B, N-(3-chloro-4-cyanophenyl)-3,3,3-trifluoro-2-hydroxy-2-methylpropionamide], in experiment [1], the IC50 worked out at 0.1 µM and the “opening effect” value was “excellent opening effect”. In experiment [2], the IC50 amounted to 0.5 µM and the “affinity” value was “good affinity”.
Taken in the same sequence, the figures for `CC(O)(C(=O)Nc1ccc(C#N)c(C(F)(F)F)c1)C(F)(F)F` (stereo not shown) [A, N-(4-cyano-3-(trifluoromethyl)phenyl)-3,3,3-trifluoro-2-hydroxy-2-methylpropionamide] were 0.5 µM, “excellent opening effect”, 1 µM and “good affinity”.
On to `CC(O)(C(=O)Nc1ccc(Cl)c(Cl)c1)C(F)(F)F` (stereo not shown) [C, N-(3,4-dichlorophenyl)-3,3,3-trifluoro-2-hydroxy-2-methylpropionamide], for which, in experiment [1], the IC50 stood at 2 µM and the “opening effect” value is on record as “excellent opening effect”. Besides, the IC50 in experiment [2] (setting [3]) is 1 µM. The “affinity” value in experiment [2] was “good affinity”.
For the molecule `CC(O)(C(=O)Nc1ccc(C#N)c(C(F)(F)F)c1)c1ccccc1` (stereo not shown) [D, N-(4-cyano-3-(trifluoromethyl)phenyl)-2-hydroxy-2-phenylpropionamide], in experiment [1], the IC50 came out at 3 µM and the “opening effect” value is reported as “excellent opening effect”. Moreover, in experiment [2], 3 µM corresponded to half-maximal inhibition (IC50) and the “affinity” value was “good affinity”.
`CC(O)(C(=O)Nc1ccc([N+](=O)[O-])c(C(F)(F)F)c1)C(F)(F)F` (stereo not shown) [F, N-(4-nitro-3-(trifluoromethyl)phenyl)-3,3,3-trifluoro-2-hydroxy-2-methylpropionamide, reference compound]: in experiment [1], the IC50 is over 10 µM and the “opening effect” value is given as “poor opening effect”. The IC50 in experiment [2] (setting [3]) is over 10 µM. In experiment [2], the “affinity” value is on record as “poor affinity”.
Consider `CC(O)(C(=O)Nc1ccc(C#N)c(C#N)c1)C(F)(F)F` (stereo not shown) [E, N-(3,4-dicyanophenyl)-3,3,3-trifluoro-2-hydroxy-2-methylpropionamide], for which, in experiment [1], the 50% inhibitory concentration (IC50) amounted to 1 µM and the “opening effect” value is listed as “excellent opening effect”. In experiment [2], the midpoint of inhibition, the IC50, lay at 10 µM and the “affinity” value was “good affinity”.
